Data from ChEMBL document CHEMBL4130376, “Discovery of methylsulfonyl indazoles as potent and orally active respiratory syncytial Virus(RSV) fusion inhibitors” (Eur J Med Chem, 2017).

Tests used:
[1] = Effective permeability of the compound by PAMPA; type: ADME; settings: read-out: Peff
[2] = Metabolic stability in human liver microsomes by high-throughput screening based assay; type: ADME, microsome; settings: read-out: Stability
[3] = Cmax in rat at 1 mg/kg, iv; type: ADME, organism-based; set-up: dose 1 mg/kg, route intravenous; settings: in vivo
[4] = AUC (0 to 24 hrs) in rat at 5 mg/kg, po; type: ADME, organism-based; set-up: dose 5 mg/kg, time < 24 hr, route oral; settings: in vivo
[5] = Oral bioavailability in rat at 5 mg/kg; type: ADME, organism-based; settings: in vivo
[6] = Half life in rat at 1 mg/kg, iv; type: ADME, organism-based; settings: in vivo
[7] = Tmax in rat at 5 mg/kg, po; type: ADME, organism-based; settings: in vivo
[8] = Volume of distribution at steady state in rat at 1 mg/kg, iv; type: ADME, organism-based; settings: in vivo, read-out: Vdss
[9] = Cmax in rat at 5 mg/kg, po; type: ADME, organism-based; set-up: dose 5 mg/kg, route oral; settings: in vivo
[10] = Metabolic stability in mouse liver microsomes by high-throughput screening based assay; type: ADME, microsome; settings: read-out: Stability
[11] = system: Rattus norvegicus; assay: AUC (0 to 24 hrs) in rat at 1 mg/kg, iv; type: ADME, organism-based; set-up: dose 1 mg/kg, time < 24 hr, route intravenous; settings: in vivo
[12] = Metabolic stability in rat liver microsomes by high-throughput screening based assay; type: ADME, microsome; settings: read-out: Stability
[13] = AUC (0 to 24 hrs) in ICR mouse at 10 mg/kg, po; type: ADME, organism-based; set-up: time < 24 hr, dose 10 mg/kg, route oral; settings: in vivo
[14] = Tmax in ICR mouse at 10 mg/kg, po; type: ADME, organism-based; settings: in vivo
[15] = Oral bioavailability in ICR mouse at 10 mg/kg; type: ADME, organism-based; settings: in vivo
[16] = Half life in ICR mouse at 2 mg/kg, iv; type: ADME, organism-based; settings: in vivo
[17] = Volume of distribution at steady state in ICR mouse at 2 mg/kg, iv; type: ADME, organism-based; settings: in vivo, read-out: Vdss
[18] = (§1) AUC (0 to 24 hrs) in ICR mouse at 2 mg/kg, iv; type: ADME, organism-based; set-up: time < 24 hr, dose 2 mg/kg, route intravenous; settings: ICR, in vivo
[19] = Plasma clearance in ICR mouse at 2 mg/kg, iv; type: ADME, organism-based
[20] = Cmax in ICR mouse at 2 mg/kg, iv; type: ADME, organism-based; set-up: dose 2 mg/kg, route intravenous; settings: in vivo
[21] = Half life in ICR mouse at 10 mg/kg, po; type: ADME, organism-based; settings: in vivo
[22] = Cmax in ICR mouse at 10 mg/kg, po; type: ADME, organism-based; set-up: dose 10 mg/kg, route oral; settings: in vivo
[23] = Tmax in ICR mouse at 12.5 mg/kg, po; type: ADME, organism-based; settings: in vivo
[24] = Cmax in ICR mouse at 12.5 mg/kg, po; type: ADME, organism-based; set-up: dose 12.5 mg/kg, route oral; settings: in vivo
[25] = Oral bioavailability in ICR mouse at 12.5 mg/kg; type: ADME, organism-based; settings: in vivo
[26] = Half life in ICR mouse at 12.5 mg/kg, po; type: ADME, organism-based; settings: in vivo
[27] = AUC (0 to 24 hrs) in ICR mouse at 12.5 mg/kg, po; type: ADME, organism-based; set-up: time < 24 hr, dose 12.5 mg/kg, route oral; settings: in vivo
[28] = Half life in ICR mouse at […], po; type: ADME, organism-based; settings: in vivo
[29] = (§2) Cmax in ICR mouse at […], po; type: ADME, organism-based; set-up: dose 8.3 mg/kg, route oral; settings: in vivo
[30] = system: Mus musculus; assay: as §1; type: ADME, organism-based; set-up: time < 24 hr, dose 2 mg/kg, route intravenous; settings: in vivo, 24 h
[31] = Tmax in ICR mouse at […], po; type: ADME, organism-based; settings: in vivo
[32] = system: Mus musculus; assay: (§3) Oral bioavailability in ICR mouse at […]; type: ADME, organism-based; settings: in vivo
[33] = system: Mus musculus; assay: (§4) AUC (0 to 24 hrs) in ICR mouse at […], po; type: ADME, organism-based; set-up: time < 24 hr, dose 8.3 mg/kg, route oral; settings: in vivo
[34] = as §2; type: ADME, organism-based; set-up: dose 7.9 mg/kg, route oral; settings: in vivo
[35] = as §4; type: ADME, organism-based; set-up: time < 24 hr, dose 7.9 mg/kg, route oral; settings: in vivo
[36] = as §3; type: ADME, organism-based; settings: in vivo
[37] = Cmax in rat at 2 mg/kg, iv; type: ADME, organism-based; set-up: dose 2 mg/kg, route intravenous; settings: in vivo
[38] = Half life in rat at 2 mg/kg, iv; type: ADME, organism-based; settings: in vivo
[39] = Volume of distribution at steady state in rat at 2 mg/kg, iv; type: ADME, organism-based; settings: in vivo, read-out: Vdss
[40] = Oral bioavailability in rat at 10 mg/kg; type: ADME, organism-based; settings: in vivo
[41] = Half life in rat at 10 mg/kg, po; type: ADME, organism-based; settings: in vivo
[42] = Cmax in rat at 10 mg/kg, po; type: ADME, organism-based; set-up: dose 10 mg/kg, route oral; settings: in vivo
[43] = Tmax in rat at 10 mg/kg, po; type: ADME, organism-based; settings: in vivo
[44] = Plasma clearance in rat at 2 mg/kg, iv; type: ADME, organism-based
[45] = AUC (0 to 24 hrs) in rat at 10 mg/kg, po; type: ADME, organism-based; set-up: time < 24 hr, dose 10 mg/kg, route oral; settings: in vivo
[46] = AUC (0 to 24 hrs) in rat at 2 mg/kg, iv; type: ADME, organism-based; set-up: dose 2 mg/kg, time < 24 hr, route intravenous; settings: in vivo

Compound	Papp [1]	CLhep predicted [2]	CLhep predicted [10]	CLhep predicted [12]	half-life [16]	Vd [17]	AUC(0-t) at 24 h [18]	clearance [19]	Cmax [20]	other results
CS(=O)(=O)CCCn1c(Cn2cc(S(C)(=O)=O)c3ccccc32)nc2cc(Cl)ccc21	1.55 to 2.36 ×10⁻⁶ cm/s	0.66 mL/min/kg	34 mL/min/kg	1.33 mL/min/kg						Cmax [3]: 371 ng/mL; AUC(0-t) at 24 h [4]: 21.4 ng·h/mL; bioavailability [5]: 1.46%; half-life [6]: 0.674 h; Tmax [7]: 4.67 h; Vd [8]: 2.71 L/kg; Cmax [9]: 4.05 ng/mL; AUC [11]: 294 ng·h/mL
CC(C)(O)CCCn1c(Cn2nc(S(C)(=O)=O)c3ccncc32)nc2cc(Cl)ccc21	2.57 ×10⁻⁶ cm/s	5.17 mL/min/kg	20.7 mL/min/kg	2.96 mL/min/kg	0.242 h	1.09 L/kg	552 ng·h/mL	60.4 mL/min/kg	1300 ng/mL	AUC(0-t) at 24 h [13]: 809 ng·h/mL; Tmax [14]: 0.25 h; bioavailability [15]: 29.3%; half-life [21]: 5.11 h; Cmax [22]: 340 ng/mL
CS(=O)(=O)c1nn(Cc2nc3cc(Cl)ccc3n2CCCO)c2cnccc12	3.47 ×10⁻⁶ cm/s	2.96 mL/min/kg	15.3 mL/min/kg	14.9 mL/min/kg	4.05 h	8.3 L/kg	954 ng·h/mL	37.4 mL/min/kg	1730 ng/mL	Tmax [23]: 0.5 h; Cmax [24]: 155 ng/mL; bioavailability [25]: 17.1%; half-life [26]: 6.6 h; AUC(0-t) at 24 h [27]: 891 ng·h/mL
CS(=O)(=O)c1nn(Cc2nc3cc(Cl)ccc3n2CCC(F)(F)F)c2cnccc12	2.81 ×10⁻⁶ cm/s	1.09 mL/min/kg	18 mL/min/kg	0.28 mL/min/kg	1.03 h	1.04 L/kg		12.2 mL/min/kg	1940 ng/mL	half-life [28]: 3.16 h; Cmax [29]: 589 ng/mL; AUC [30]: 4830 ng·h/mL; Tmax [31]: 1 h; F [32]: 42.8%; AUC [33]: 2730 ng·h/mL
CS(=O)(=O)CCCc1c(CN2C(=O)C3(CC3)c3ccncc32)nc2cc(Cl)ccn12		11.7 mL/min/kg	83.3 mL/min/kg							
CN(C)S(=O)(=O)c1cn(Cc2nc3cc(Cl)ccc3n2CCCS(C)(=O)=O)c2ccccc12	1.55 ×10⁻⁶ cm/s	21.9 mL/min/kg	81.7 mL/min/kg	56.2 mL/min/kg						
CS(=O)(=O)CCCn1c(Cn2nc(S(C)(=O)=O)c3ccncc32)nc2cc(Cl)ccc21	1.55 ×10⁻⁶ cm/s	11.3 mL/min/kg	75.5 mL/min/kg	39.9 mL/min/kg						
CC(C)(O)CCn1c(Cn2nc(S(C)(=O)=O)c3ccncc32)nc2cc(Cl)ccc21	2.39 ×10⁻⁶ cm/s	2.95 mL/min/kg	26.6 mL/min/kg	8.45 mL/min/kg	0.47 h	1.93 L/kg	701 ng·h/mL	61.1 mL/min/kg	894 ng/mL	Cmax [34]: 324 ng/mL; half-life [28]: 1.98 h; Tmax [31]: 0.25 h; AUC(0-t) at 24 h [35]: 546 ng·h/mL; bioavailability [36]: 32.5%
CS(=O)(=O)CCCn1c(Cn2nc(S(C)(=O)=O)c3ccccc32)nc2cc(Cl)ccc21	2.78 ×10⁻⁶ cm/s	3.42 mL/min/kg	14.9 mL/min/kg							Cmax [37]: 1160 ng/mL; half-life [38]: 3.91 h; Vd [39]: 2.5 L/kg; bioavailability [40]: 1.7%; half-life [41]: 3.66 h; Cmax [42]: 22.2 ng/mL; Tmax [43]: 2.67 h; clearance [44]: 17.4 mL/min/kg; AUC(0-t) at 24 h [45]: 204 ng·h/mL; AUC(0-t) at 24 h [46]: 2470 ng·h/mL
